Test results: patent US5773226A, “Recombinant calf intestinal alkaline phosphatase” (La Jolla Cancer Research Foundation, priority 1995, dated 1998)

Columns and labels:
[1] = target: T1, recombinant calf intestinal alkaline phosphatase (b.IAP), expressed in CHO cells, SEQ ID NO: 10 (Bos taurus, UniProt P19111); experiment: Kinetic parameters (Km, Ki for L-Phe) of recombinant calf IAP; format: biochemical, calf (bovine); conditions: recombinant enzyme; read-out: K1 for L-Phe
T1 construct: codes for a peptide of 533 amino acids in length; made in house; host or cells: Chinese hamster ovary (CHO) cells, ATCC No. CCL61
T1 sequence (P19111 20-506 limits assumed): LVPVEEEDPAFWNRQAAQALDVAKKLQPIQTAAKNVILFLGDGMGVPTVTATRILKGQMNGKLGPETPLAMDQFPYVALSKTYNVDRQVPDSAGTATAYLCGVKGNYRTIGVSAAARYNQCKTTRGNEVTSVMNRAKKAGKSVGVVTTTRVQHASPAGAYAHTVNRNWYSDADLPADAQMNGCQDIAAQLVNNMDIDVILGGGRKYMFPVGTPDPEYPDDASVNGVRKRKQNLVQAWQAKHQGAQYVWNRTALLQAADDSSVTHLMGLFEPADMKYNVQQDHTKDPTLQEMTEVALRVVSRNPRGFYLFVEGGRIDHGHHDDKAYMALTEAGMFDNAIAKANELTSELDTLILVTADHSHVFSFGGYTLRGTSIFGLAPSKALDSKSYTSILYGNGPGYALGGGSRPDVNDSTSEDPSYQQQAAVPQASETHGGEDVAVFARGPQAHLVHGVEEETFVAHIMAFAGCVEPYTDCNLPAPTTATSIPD
Description: (§1) Values for Km and Kl for L-Phe were determined for the recombinant enzyme as well as for purified protein from calf intestine as described in Hummer and Millan, supra, and Wilkinson, Biochem. J. 8:324-332 (1961), incorporated herein by reference.

[2] = target: purified calf intestinal alkaline phosphatase (b.IAP) from natural sources (calf intestine); experiment: Kinetic parameters (Km, Ki for L-Phe) of purified natural calf IAP; format: biochemical, calf (bovine); conditions: purified natural enzyme; read-out: K1 for L-Phe
Description: as §1

Q: Which Ki [1] does the source give for `N[C@@H](Cc1ccccc1)C(=O)O` [L-Phe] here?
A: The Ki was 15.2 ± 1.8 mM.

Q: And the Ki [2]?
A: The Ki was 11.2 ± 1 mM.
